# Measurements reported in ChEMBL document CHEMBL5303573, “Mapping human microbiome drug metabolism by gut bacteria and their genes” (Nature, 2019).
# Conditions: bacteroides thetaiotaomicron, 12 h, 2 µM
# Description: The drug is tested on Bacteroides thetaiotaomicron strain: 7330 for biotransformation. The drug concentrations were measured before and after a 12-h incubation by liquid-chromatography-coupled mass spectrometry (LC–MS)
row,SMILES,Bacterial Biotransformation
1,CCc1cccc2c3c([nH]c12)C(CC)(CC(=O)O)OCC3 (configuration not stated) [ETODOLAC],Compound metabolized
2,Br.CN1CCC[C@@H]1Cc1c[nH]c2ccc(CCS(=O)(=O)c3ccccc3)cc12 [ELETRIPTAN HYDROBROMIDE],Compound NOT metabolized

# Conditions: limosilactobacillus reuteri cf48-3a, 12 h, 2 µM
# Description: The drug is tested on Lactobacillus reuteri CF48-3A strain: BEI HM-102 for biotransformation. The drug concentrations were measured before and after a 12-h incubation by liquid-chromatography-coupled mass spectrometry (LC–MS)
row,SMILES,Bacterial Biotransformation
1,Nc1c2c(nc3ccccc13)CCCC2 [TACRINE],Compound NOT metabolized
2,CCc1cccc2c3c([nH]c12)C(CC)(CC(=O)O)OCC3 (configuration not stated) [ETODOLAC],Compound NOT metabolized
3,Br.CN1CCC[C@@H]1Cc1c[nH]c2ccc(CCS(=O)(=O)c3ccccc3)cc12 [ELETRIPTAN HYDROBROMIDE],Compound NOT metabolized

# Assay: The drug is tested on Parabacteroides merdae strain: ATCC43184 for biotransformation. The drug concentrations were measured before and after a 12-h incubation by liquid-chromatography-coupled mass spectrometry (LC–MS)
# Conditions: 2 µM
row,SMILES,Bacterial Biotransformation
1,CCc1cccc2c3c([nH]c12)C(CC)(CC(=O)O)OCC3 (configuration not stated) [ETODOLAC],Compound NOT metabolized
2,Br.CN1CCC[C@@H]1Cc1c[nH]c2ccc(CCS(=O)(=O)c3ccccc3)cc12 [ELETRIPTAN HYDROBROMIDE],Compound NOT metabolized

# Assay: The drug is tested on Bacteroides dorei strain: DSM17855 for biotransformation. The drug concentrations were measured before and after a 12-h incubation by liquid-chromatography-coupled mass spectrometry (LC–MS)
# Conditions: phocaeicola dorei, 2 µM
row,SMILES,Bacterial Biotransformation
1,Nc1c2c(nc3ccccc13)CCCC2 [TACRINE],Compound NOT metabolized
2,Br.CN1CCC[C@@H]1Cc1c[nH]c2ccc(CCS(=O)(=O)c3ccccc3)cc12 [ELETRIPTAN HYDROBROMIDE],Compound NOT metabolized

# Assay: The drug is tested on Collinsella intestinalis strain: DSM13280 for biotransformation. The drug concentrations were measured before and after a 12-h incubation by liquid-chromatography-coupled mass spectrometry (LC–MS)
# Conditions: 2 µM
row,SMILES,Bacterial Biotransformation
1,Nc1c2c(nc3ccccc13)CCCC2 [TACRINE],Compound NOT metabolized
2,CCc1cccc2c3c([nH]c12)C(CC)(CC(=O)O)OCC3 (configuration not stated) [ETODOLAC],Compound NOT metabolized
3,Br.CN1CCC[C@@H]1Cc1c[nH]c2ccc(CCS(=O)(=O)c3ccccc3)cc12 [ELETRIPTAN HYDROBROMIDE],Compound NOT metabolized

# Assay: The drug is tested on Ruminococcus gnavus strain: ATCC29149 for biotransformation. The drug concentrations were measured before and after a 12-h incubation by liquid-chromatography-coupled mass spectrometry (LC–MS)
# Conditions: mediterraneibacter gnavus, 2 µM
row,SMILES,Bacterial Biotransformation
1,Nc1c2c(nc3ccccc13)CCCC2 [TACRINE],Compound NOT metabolized
2,CCc1cccc2c3c([nH]c12)C(CC)(CC(=O)O)OCC3 (configuration not stated) [ETODOLAC],Compound NOT metabolized
3,Br.CN1CCC[C@@H]1Cc1c[nH]c2ccc(CCS(=O)(=O)c3ccccc3)cc12 [ELETRIPTAN HYDROBROMIDE],Compound NOT metabolized

# Assay: The drug is tested on Bacteroides fragilis strain: HMW610 for biotransformation. The drug concentrations were measured before and after a 12-h incubation by liquid-chromatography-coupled mass spectrometry (LC–MS)
# Conditions: 2 µM
row,SMILES,Bacterial Biotransformation
1,Br.CN1CCC[C@@H]1Cc1c[nH]c2ccc(CCS(=O)(=O)c3ccccc3)cc12 [ELETRIPTAN HYDROBROMIDE],Compound NOT metabolized

# Assay: The drug is tested on Bacteroides sp. WH2 strain: WH2 for biotransformation. The drug concentrations were measured before and after a 12-h incubation by liquid-chromatography-coupled mass spectrometry (LC–MS)
# Conditions: bacteroides sp. wh2, 12 h, 2 µM
row,SMILES,Bacterial Biotransformation
1,Nc1c2c(nc3ccccc13)CCCC2 [TACRINE],Compound NOT metabolized
2,CCc1cccc2c3c([nH]c12)C(CC)(CC(=O)O)OCC3 (configuration not stated) [ETODOLAC],Compound NOT metabolized
3,Br.CN1CCC[C@@H]1Cc1c[nH]c2ccc(CCS(=O)(=O)c3ccccc3)cc12 [ELETRIPTAN HYDROBROMIDE],Compound NOT metabolized

# Assay: The drug is tested on Anaerococcus hydrogenalis strain: DSM7454 for biotransformation. The drug concentrations were measured before and after a 12-h incubation by liquid-chromatography-coupled mass spectrometry (LC–MS)
# Conditions: 2 µM
row,SMILES,Bacterial Biotransformation
1,Nc1c2c(nc3ccccc13)CCCC2 [TACRINE],Compound NOT metabolized
2,CCc1cccc2c3c([nH]c12)C(CC)(CC(=O)O)OCC3 (configuration not stated) [ETODOLAC],Compound NOT metabolized
3,Br.CN1CCC[C@@H]1Cc1c[nH]c2ccc(CCS(=O)(=O)c3ccccc3)cc12 [ELETRIPTAN HYDROBROMIDE],Compound NOT metabolized

# Conditions: bacteroides stercoris, 12 h, 2 µM
# Description: The drug is tested on Bacteroides stercoris strain: ATCC43183 for biotransformation. The drug concentrations were measured before and after a 12-h incubation by liquid-chromatography-coupled mass spectrometry (LC–MS)
row,SMILES,Bacterial Biotransformation
1,Nc1c2c(nc3ccccc13)CCCC2 [TACRINE],Compound NOT metabolized
2,CCc1cccc2c3c([nH]c12)C(CC)(CC(=O)O)OCC3 (configuration not stated) [ETODOLAC],Compound NOT metabolized
3,Br.CN1CCC[C@@H]1Cc1c[nH]c2ccc(CCS(=O)(=O)c3ccccc3)cc12 [ELETRIPTAN HYDROBROMIDE],Compound NOT metabolized

# Conditions: bacteroides eggerthii, 12 h, 2 µM
# Description: The drug is tested on Bacteroides eggerthii strain: DSM20697 for biotransformation. The drug concentrations were measured before and after a 12-h incubation by liquid-chromatography-coupled mass spectrometry (LC–MS)
row,SMILES,Bacterial Biotransformation
1,Nc1c2c(nc3ccccc13)CCCC2 [TACRINE],Compound NOT metabolized
2,CCc1cccc2c3c([nH]c12)C(CC)(CC(=O)O)OCC3 (configuration not stated) [ETODOLAC],Compound NOT metabolized
3,Br.CN1CCC[C@@H]1Cc1c[nH]c2ccc(CCS(=O)(=O)c3ccccc3)cc12 [ELETRIPTAN HYDROBROMIDE],Compound NOT metabolized

# Conditions: bacteroides intestinalis, 12 h, 2 µM
# Description: The drug is tested on Bacteroides intestinalis strain: DSM17393 for biotransformation. The drug concentrations were measured before and after a 12-h incubation by liquid-chromatography-coupled mass spectrometry (LC–MS)
row,SMILES,Bacterial Biotransformation
1,Nc1c2c(nc3ccccc13)CCCC2 [TACRINE],Compound NOT metabolized
2,Br.CN1CCC[C@@H]1Cc1c[nH]c2ccc(CCS(=O)(=O)c3ccccc3)cc12 [ELETRIPTAN HYDROBROMIDE],Compound NOT metabolized

# Conditions: enterocloster bolteae, 12 h, 2 µM
# Description: The drug is tested on Clostridium bolteae strain: ATCCBAA-613 for biotransformation. The drug concentrations were measured before and after a 12-h incubation by liquid-chromatography-coupled mass spectrometry (LC–MS)
row,SMILES,Bacterial Biotransformation
1,Nc1c2c(nc3ccccc13)CCCC2 [TACRINE],Compound NOT metabolized
2,CCc1cccc2c3c([nH]c12)C(CC)(CC(=O)O)OCC3 (configuration not stated) [ETODOLAC],Compound NOT metabolized
3,Br.CN1CCC[C@@H]1Cc1c[nH]c2ccc(CCS(=O)(=O)c3ccccc3)cc12 [ELETRIPTAN HYDROBROMIDE],Compound NOT metabolized

# Assay: The drug is tested on Collinsella aerofaciens strain: ATCC25986 for biotransformation. The drug concentrations were measured before and after a 12-h incubation by liquid-chromatography-coupled mass spectrometry (LC–MS)
# Conditions: 2 µM
row,SMILES,Bacterial Biotransformation
1,Nc1c2c(nc3ccccc13)CCCC2 [TACRINE],Compound NOT metabolized
2,CCc1cccc2c3c([nH]c12)C(CC)(CC(=O)O)OCC3 (configuration not stated) [ETODOLAC],Compound NOT metabolized
3,Br.CN1CCC[C@@H]1Cc1c[nH]c2ccc(CCS(=O)(=O)c3ccccc3)cc12 [ELETRIPTAN HYDROBROMIDE],Compound NOT metabolized

# Assay: The drug is tested on Bifidobacterium longum subsp. Infantis strain: CCUG52486 for biotransformation. The drug concentrations were measured before and after a 12-h incubation by liquid-chromatography-coupled mass spectrometry (LC–MS)
# Conditions: 2 µM
row,SMILES,Bacterial Biotransformation
1,Nc1c2c(nc3ccccc13)CCCC2 [TACRINE],Compound NOT metabolized
2,CCc1cccc2c3c([nH]c12)C(CC)(CC(=O)O)OCC3 (configuration not stated) [ETODOLAC],Compound NOT metabolized
3,Br.CN1CCC[C@@H]1Cc1c[nH]c2ccc(CCS(=O)(=O)c3ccccc3)cc12 [ELETRIPTAN HYDROBROMIDE],Compound NOT metabolized

# Assay: The drug is tested on Bacteroides coprophilus strain: DSM18228 for biotransformation. The drug concentrations were measured before and after a 12-h incubation by liquid-chromatography-coupled mass spectrometry (LC–MS)
# Conditions: 2 µM
row,SMILES,Bacterial Biotransformation
1,CCc1cccc2c3c([nH]c12)C(CC)(CC(=O)O)OCC3 (configuration not stated) [ETODOLAC],Compound NOT metabolized
2,Br.CN1CCC[C@@H]1Cc1c[nH]c2ccc(CCS(=O)(=O)c3ccccc3)cc12 [ELETRIPTAN HYDROBROMIDE],Compound NOT metabolized

# Assay: The drug is tested on Edwardsiella tarda strain: ATCC23685 for biotransformation. The drug concentrations were measured before and after a 12-h incubation by liquid-chromatography-coupled mass spectrometry (LC–MS)
# Conditions: 2 µM
row,SMILES,Bacterial Biotransformation
1,Nc1c2c(nc3ccccc13)CCCC2 [TACRINE],Compound NOT metabolized
2,CCc1cccc2c3c([nH]c12)C(CC)(CC(=O)O)OCC3 (configuration not stated) [ETODOLAC],Compound NOT metabolized
3,Br.CN1CCC[C@@H]1Cc1c[nH]c2ccc(CCS(=O)(=O)c3ccccc3)cc12 [ELETRIPTAN HYDROBROMIDE],Compound NOT metabolized

# Assay: The drug is tested on Clostridium asparagiforme strain: DSM15981 for biotransformation. The drug concentrations were measured before and after a 12-h incubation by liquid-chromatography-coupled mass spectrometry (LC–MS)
# Type: ADME
# Set-up: dose 2 uM, timepoint 0 vs 12 hours
# Conditions: enterocloster asparagiformis, 2 µM
row,SMILES,Bacterial Biotransformation
1,Nc1c2c(nc3ccccc13)CCCC2 [TACRINE],Compound NOT metabolized
2,CCc1cccc2c3c([nH]c12)C(CC)(CC(=O)O)OCC3 (configuration not stated) [ETODOLAC],Compound NOT metabolized

# Assay: The drug is tested on Providencia stuartii strain: ATCC25827 for biotransformation. The drug concentrations were measured before and after a 12-h incubation by liquid-chromatography-coupled mass spectrometry (LC–MS)
# Conditions: 2 µM
row,SMILES,Bacterial Biotransformation
1,Nc1c2c(nc3ccccc13)CCCC2 [TACRINE],Compound NOT metabolized
2,CCc1cccc2c3c([nH]c12)C(CC)(CC(=O)O)OCC3 (configuration not stated) [ETODOLAC],Compound NOT metabolized
3,Br.CN1CCC[C@@H]1Cc1c[nH]c2ccc(CCS(=O)(=O)c3ccccc3)cc12 [ELETRIPTAN HYDROBROMIDE],Compound NOT metabolized

# Assay: The drug is tested on Bacteroides pectinophilus strain: ATCC43243 for biotransformation. The drug concentrations were measured before and after a 12-h incubation by liquid-chromatography-coupled mass spectrometry (LC–MS)
# Conditions: 2 µM
row,SMILES,Bacterial Biotransformation
1,Nc1c2c(nc3ccccc13)CCCC2 [TACRINE],Compound NOT metabolized
2,CCc1cccc2c3c([nH]c12)C(CC)(CC(=O)O)OCC3 (configuration not stated) [ETODOLAC],Compound NOT metabolized
3,Br.CN1CCC[C@@H]1Cc1c[nH]c2ccc(CCS(=O)(=O)c3ccccc3)cc12 [ELETRIPTAN HYDROBROMIDE],Compound NOT metabolized
